This note sets out measurements from US10342796B2, “Acrylanilide derivative, preparation method, and applications thereof in pharmacy” (Ancureall Pharmaceutical (Shanghai) Co., Ltd., priority 2015, dated 2019).

What all share (assay): Growth inhibition GI50 in vitro (CCK8/MTT, 72 h)
Assay type in all cases: cell-based, human

One experiment relates to H1975 (EGFR L858R/T790M). Conditions: Homo sapiens, NCI-H1975; Table 13, 72 h; read-out: Range of GI50 H1975 (EGFR L858R/T790M). How it is done: (§1) PC-9ER is an acquired Erlotinib resistance cell line of PC-9 cells developed by the investor. […] The four cell lines above were cultured with 1×RPMI1640 complete medium (supplement with 10% FBS). Human colon cancer cell line SW48 (EGFR G719S positive, ATCC). was cultured with L15 complete medium (10% FB S).
(§2) The suspension cells were collected by centrifugation. The supernatant was discard and the cell pellet was resuspended and counted. Different cell concentrations (5˜10×10^4 cells/mL) were prepared according to the growth cycle of each cell line and then seeded on a 96-well plate (Corning), 100 μL/well. The cells were incubated over night at 37° C., 5% CO2. The compounds were added to the cells on the second day with 2 wells in parallel. The final concentration of organic solvent shall not exceed 1%. The cells were continually incubated for 72 h, and then subjected to MTT assay.
(§3) The present compounds and the reference compounds were dissolved with DMSO (Sigma), respectively. […] The storage concentration of compounds was 10 mM and kept at −20° C. They were diluted by 2 times or 10 times with serial dilution before using.
(§4) Dojindo CCK8 reagent kit was used as MTT assay. […] FC meter was used as microplate reader.
(§5) Adherent cell culture medium was discard and immediately replaced with fresh prepared medium which contains 10% CCK8 reagent (100 μL/well). For the suspension cells, CCK8 was directly added to 10% of the final concentration. The cells were continually incubated for 1˜4 h. When the color of control wells turned to dark yellow, the absorption value was measured at OD450 nm. The cell growth rate was calculated according to the following formula: cell growth rate (%)=100*(T−T0)/(C−T0), T=optical density of drug treatment cell well—optical density of blank control well; T0=optical density of cell well before drug treatment—optical density of blank control well; C=optical density of cell well of solvent control group—optical density of blank control well. […] The experiment was independently repeated 1˜3 times, and subject to biological statistical analysis.

Another experiment deals with PC-9 (EGFR dE746-A750). Conditions: Homo sapiens; Table 13, 72 h; read-out: Range of GI50 PC-9 (EGFR dE746-A750). How it is done:
as §1, §2, §3, §4, §5

For a further experiment, the system named is A549 (EGFR WT). The conditions noted are these: Homo sapiens, A549; Table 13, 72 h; read-out: Range of GI50 A549 (EGFR WT).
Excerpt: EGFR wild type cell lines: human epidermal cancer cell line A431 (EGFR WT, amplification and high expression, from Shanghai Cell Bank of Chinese Academy of Sciences and ATCC), NSCLC cell lines NCI-H460 (EGFR WT, Kras G61H and PI3KCA E545K mutants, ATCC) and NCI-H1299 (EGFR WT, ATCC), melanoma cell line A375 (EGFR WT and BRAF V600E mutant, from Shanghai Cell Bank of Chinese Academy of Sciences, ATCC), human lung cancer cell line NCI-H292 (EGFR WT, from human lung mucoepidermoid carcinoma/lymphatic metastasis, purchased from Shanghai Cell Bank of Chinese Academy of Sciences) were cultured with 1×RPMI1640 complete medium which was supplement with 10% FBS. NSCLC cell line A549 (EGFR WT and Kras G12S mutant, from Shanghai Cell Bank of Chinese Academy of Sciences) was cultured with 1×Ham'S F12K complete medium which was supplement with 10% FBS, 1% double-antibiotics and 2 mM glutamine.
as §2, §3, §4, §5

The subject of a further experiment is N87 (HER2 Amp). The conditions noted are these: Homo sapiens; Table 13, 72 h; read-out: Range of GI50 N87 (HER2 Amp).

As for `C=CC(=O)Nc1cc(Nc2cc(Nc3cc(OC)c(Cl)cc3Cl)ncn2)c(OC)cc1OCCN1CCCC1` [Compound 244, N-(5-(6-(2,4-dichloro-5-methoxyl-phenylamino)-pyrimidin-4-yl-amino)-2-(2-(pyrrolidin-1-yl)-ethoxyl)-4-methoxyl-phenyl)-acrylamide], the GI50 is 10 to 100 nM in the experiment on H1975 (EGFR L858R/T790M), 10 to 100 nM in the experiment with PC-9 (EGFR dE746-A750), more than 1000 nM in the experiment with A549 (EGFR WT) and 10 to 100 nM in the experiment on N87 (HER2 Amp).
On to `C=CC(=O)Nc1cc(Nc2cc(Nc3ccc(OCC4(C)COC4)c(Cl)c3)ncn2)c(OC)cc1N(C)CCN(C)C` [Compound 252, N-(5-(6-(3-chloro-4-(3-methyl-oxetan-3-yl-methoxyl)-phenylamino)-pyrimidin-4-yl-amino)-2-((2-dimethylamino-ethyl)-methyl-amino)-4-methoxyl-phenyl)-acrylamide], for which the GI50 in the experiment on H1975 (EGFR L858R/T790M) is 10 to 100 nM; in the experiment on PC-9 (EGFR dE746-A750), 10 to 100 nM; in the experiment on A549 (EGFR WT) it was more than 1000 nM; in the experiment on N87 (HER2 Amp), 10 to 100 nM.
Turning to `C=CC(=O)Nc1cc(Nc2cc(Nc3cc(OC)c(Cl)cc3Cl)ncn2)c(OC)cc1OCCN1CCOCC1` [Compound 243], the GI50 was 10 to 100 nM in the experiment on H1975 (EGFR L858R/T790M), 10 to 100 nM with PC-9 (EGFR dE746-A750), more than 1000 nM with A549 (EGFR WT) and 10 to 100 nM in the experiment with N87 (HER2 Amp).
On to `C=CC(=O)Nc1cc(Nc2cc(Nc3ccc(OC)c(C(C)=O)c3)ncn2)c(OC)cc1N(C)CCN(C)C` [Compound 256, N-(5-(6-(3-acetyl-4-methoxyphenylamino)-pyrimidin-4-yl-amino)-2-((2-dimethylamino-ethyl)-methyl-amino)-4-methoxyl-phenyl)-acrylamide], for which the GI50 was 10 to 100 nM in the experiment on H1975 (EGFR L858R/T790M), 10 to 100 nM in the experiment on PC-9 (EGFR dE746-A750), more than 1000 nM in the experiment with A549 (EGFR WT) and 10 to 100 nM with N87 (HER2 Amp).
For `C=CC(=O)Nc1cc(Nc2cc(Nc3ccc(OCC4CCCO4)c(Cl)c3)ncn2)c(OC)cc1N(C)CCN(C)C` (stereo not drawn) [Compound 254, N-(5-(6-(3-chloro-4-(tetrahydrofuran-2-ylmethoxy)-phenylamino)-pyrimidin-4-ylamino)-2-((2-dimethylamino-ethyl)-methyl-amino)-4-methoxyl-phenyl)-acrylamide], the GI50 with H1975 (EGFR L858R/T790M) was 10 to 100 nM; in the experiment on PC-9 (EGFR dE746-A750), 10 to 100 nM; in the experiment on A549 (EGFR WT), more than 1000 nM; in the experiment on N87 (HER2 Amp) it was 10 to 100 nM.
Regarding `C=CC(=O)Nc1cc(Nc2nccc(-n3ccc4c(OCCCCCC)cccc43)n2)c(OC)cc1N(C)CCN(C)C` [Compound 206, N-(5-(4-(4-n-hexyloxy-1H-indol-1-yl)-pyrimidin-2-ylamino)-2-(2-(dimethylamino-ethyl)-methyl-amino)-4-methoxyl-phenyl)-acrylamide], the GI50 was 100 to 1000 nM in the experiment with H1975 (EGFR L858R/T790M), 100 to 1000 nM with PC-9 (EGFR dE746-A750), more than 1000 nM with A549 (EGFR WT) and 100 to 1000 nM in the experiment with N87 (HER2 Amp).
In the case of `C=CC(=O)Nc1cc(Nc2cc(Nc3ccc(OC)c(Cl)c3)ncn2)c(OC)cc1OCCN(C)C` [Compound 218, N-(5-(6-(3-chloro-4-methoxyl-phenylamino)-pyrimidin-4-ylamino)-2-(2-dimethylamino-ethoxyl)-4-methoxyl-phenyl)-acrylamide], the GI50 in the experiment on H1975 (EGFR L858R/T790M) is 10 to 100 nM; in the experiment on PC-9 (EGFR dE746-A750) it was less than 10 nM; with A549 (EGFR WT) it was more than 1000 nM; with N87 (HER2 Amp), 10 to 100 nM.
For `C=CC(=O)Nc1cc(Nc2cc(Nc3cc(OC)c(Cl)cc3Cl)ncn2)c(OC)cc1OCCN1CCN(C)CC1` [Compound 247, N-(5-(6-(2,4-dichloro-5-methoxyl-phenylamino)-pyrimidin-4-yl-amino)-2-(2-(4-methyl-piperazin-1-yl)-ethoxyl)-4-methoxyl-phenyl)-acrylamide], the GI50 was 10 to 100 nM in the experiment on H1975 (EGFR L858R/T790M), less than 10 nM in the experiment on PC-9 (EGFR dE746-A750), more than 1000 nM in the experiment with A549 (EGFR WT) and less than 10 nM in the experiment on N87 (HER2 Amp).
Consider `C=CC(=O)Nc1cc(Nc2cc(Nc3ccc(OCCN4CCOCC4)c(Cl)c3)ncn2)c(OC)cc1N(C)CCN(C)C` [Compound 215, N-(5-(6-(3-chloro-4-(2-morpholin-4-yl-ethoxyl)-phenylamino)-pyrimidin-4-ylamino)-2-((2-dimethylamino-ethyl)-methyl-amino)-4-methoxyphenyl)-acrylamide], for which the GI50 in the experiment with H1975 (EGFR L858R/T790M) was 10 to 100 nM; in the experiment on PC-9 (EGFR dE746-A750), less than 10 nM; in the experiment on A549 (EGFR WT), more than 1000 nM; in the experiment on N87 (HER2 Amp), 10 to 100 nM.
Consider `C=CC(=O)Nc1cc(Nc2cc(Nc3ccc(OC)c(C(F)(F)F)c3)ncn2)c(OC)cc1N(C)CCN(C)C` [Compound 222, N-(5-(6-(4-methoxyl-3-trifluoromethyl-phenylamino)-pyrimidin-4-yl-amino)-2-((2-dimethylamino-ethyl)-methyl-amino)-4-methoxyl-phenyl)-acrylamide], for which the GI50 in the experiment on H1975 (EGFR L858R/T790M) is 10 to 100 nM; with PC-9 (EGFR dE746-A750) it was less than 10 nM; with A549 (EGFR WT), more than 1000 nM; with N87 (HER2 Amp), 10 to 100 nM.
Regarding `C=CC(=O)Nc1cc(Nc2cc(Nc3cc(F)c(OCCOC)c(Cl)c3)ncn2)c(OC)cc1N(C)CCN(C)C` [Compound 237, N-(5-(6-(3-chloro-5-fluoro-4-(2-methoxyl-ethoxyl)-phenylamino)-pyrimidin-4-yl-amino)-2-((2-dimethylamino-ethyl)-methyl-amino)-4-methoxyl-phenyl)-acrylamide], the GI50 in the experiment with H1975 (EGFR L858R/T790M) is 10 to 100 nM; in the experiment with PC-9 (EGFR dE746-A750), 10 to 100 nM; with A549 (EGFR WT), more than 1000 nM; in the experiment with N87 (HER2 Amp), 10 to 100 nM.
Turning to `C=CC(=O)Nc1cc(Nc2cc(Nc3ccc(F)c(C(F)(F)F)c3)ncn2)c(OC)cc1N(C)CCN(C)C` [Compound 226, N-(5-(6-(4-fluoro-3-trifluoromethyl-phenylamino)-pyrimidin-4-yl-amino)-2-((2-dimethylamino-ethyl)-methyl-amino)-4-methoxyl-phenyl)-acrylamide], the GI50 was 10 to 100 nM with H1975 (EGFR L858R/T790M), less than 10 nM in the experiment with PC-9 (EGFR dE746-A750), more than 1000 nM in the experiment on A549 (EGFR WT) and 10 to 100 nM with N87 (HER2 Amp).
With `C=CC(=O)Nc1cc(Nc2cc(Nc3ccc(O)c(Cl)c3)ncn2)c(OC)cc1N(C)CCN(C)C` [Compound 253, N-(5-(6-(3-chloro-4-hydroxylphenylamino)-pyrimidin-4-ylamino)-2-((2-dimethylamino-ethyl)-methyl-amino)-4-methoxyl-phenyl)-acrylamide], the GI50 was 10 to 100 nM with H1975 (EGFR L858R/T790M), 10 to 100 nM in the experiment on PC-9 (EGFR dE746-A750), more than 1000 nM in the experiment with A549 (EGFR WT) and 10 to 100 nM in the experiment with N87 (HER2 Amp).
In the case of `C=CC(=O)Nc1cc(Nc2cc(Nc3ccc(OC(F)(F)F)c(Cl)c3)ncn2)c(OC)cc1N(C)CCN(C)C` [Compound 235, N-(5-(6-(3-chloro-4-trifluoromethoxy-phenylamino)-pyrimidin-4-yl-amino)-2-((2-dimethylamino-ethyl)-methyl-amino)-4-methoxyl-phenyl)-acrylamide], the GI50 was 10 to 100 nM with H1975 (EGFR L858R/T790M), 10 to 100 nM in the experiment with PC-9 (EGFR dE746-A750), more than 1000 nM in the experiment on A549 (EGFR WT) and 10 to 100 nM with N87 (HER2 Amp).
As to `C=CC(=O)Nc1cc(Nc2ncc(Cl)c(-n3ccc4c(OC)cccc43)n2)c(OC)cc1N(C)CCN(C)C` [Compound 203, N-(5-(4-(4-methoxyl-1H-indol-1-yl)-5-chloropyrimidin-2-ylamino)-2-(2-(dimethylamino-ethyl)-methyl-amino)-4-methoxyl-phenyl)-acrylamide], the GI50 was less than 10 nM in the experiment on H1975 (EGFR L858R/T790M), less than 10 nM with PC-9 (EGFR dE746-A750), more than 1000 nM with A549 (EGFR WT) and less than 10 nM in the experiment on N87 (HER2 Amp).
Regarding `C=CC(=O)Nc1cc(Nc2cc(Nc3ccc(OC)c(Cl)c3)ncn2)c(OC)cc1N(C)CCN1CCCC1` [Compound 225], the GI50 with H1975 (EGFR L858R/T790M), in the experiment on PC-9 (EGFR dE746-A750) and in the experiment with N87 (HER2 Amp) was 10 to 100 nM throughout.
